According to publication PMC8213057, “Targeting ALK2: An Open Science Approach to Developing Therapeutics for the Treatment of Diffuse Intrinsic Pontine Glioma” (Journal of Medicinal Chemistry, 2020):
Several values for one entry are separate records, joined by “and”; a condition that tells them apart may be missing. Equal values may be shown once.

Columns and labels:
[1] = test system: NLK
[2] = target: CAMK2g (Homo sapiens, UniProt Q13555); conditions: 1 μM; Run 1, Run 2
[3] = target: CDK7/cyclin H (Homo sapiens, UniProt P50613); conditions: 1 μM; Run 1, Run 2
[4] = target: T1, CHK1 (Homo sapiens, UniProt O14757); conditions: 1 μM; Run 1, Run 2
T1 sequence (O14757 1-476): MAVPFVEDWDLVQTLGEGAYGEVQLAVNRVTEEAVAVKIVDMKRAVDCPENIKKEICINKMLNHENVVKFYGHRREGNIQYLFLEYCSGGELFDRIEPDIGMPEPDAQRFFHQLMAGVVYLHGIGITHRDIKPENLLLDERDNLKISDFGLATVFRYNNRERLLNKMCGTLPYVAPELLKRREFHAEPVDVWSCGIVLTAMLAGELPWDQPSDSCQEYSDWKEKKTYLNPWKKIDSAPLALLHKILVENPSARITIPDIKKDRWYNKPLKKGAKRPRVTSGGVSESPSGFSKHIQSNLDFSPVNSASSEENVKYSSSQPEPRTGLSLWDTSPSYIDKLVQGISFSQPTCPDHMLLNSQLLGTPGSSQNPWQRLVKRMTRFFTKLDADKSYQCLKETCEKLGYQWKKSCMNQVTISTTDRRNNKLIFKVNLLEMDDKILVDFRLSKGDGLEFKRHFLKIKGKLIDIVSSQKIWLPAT

[5] = target: FGR (Homo sapiens, UniProt P09769); conditions: 1 μM; Run 1, Run 2
[6] = target: T2, NEK1 (Homo sapiens, UniProt Q96PY6); conditions: 1 μM; Run 1, Run 2
T2 sequence (Q96PY6 1-1258): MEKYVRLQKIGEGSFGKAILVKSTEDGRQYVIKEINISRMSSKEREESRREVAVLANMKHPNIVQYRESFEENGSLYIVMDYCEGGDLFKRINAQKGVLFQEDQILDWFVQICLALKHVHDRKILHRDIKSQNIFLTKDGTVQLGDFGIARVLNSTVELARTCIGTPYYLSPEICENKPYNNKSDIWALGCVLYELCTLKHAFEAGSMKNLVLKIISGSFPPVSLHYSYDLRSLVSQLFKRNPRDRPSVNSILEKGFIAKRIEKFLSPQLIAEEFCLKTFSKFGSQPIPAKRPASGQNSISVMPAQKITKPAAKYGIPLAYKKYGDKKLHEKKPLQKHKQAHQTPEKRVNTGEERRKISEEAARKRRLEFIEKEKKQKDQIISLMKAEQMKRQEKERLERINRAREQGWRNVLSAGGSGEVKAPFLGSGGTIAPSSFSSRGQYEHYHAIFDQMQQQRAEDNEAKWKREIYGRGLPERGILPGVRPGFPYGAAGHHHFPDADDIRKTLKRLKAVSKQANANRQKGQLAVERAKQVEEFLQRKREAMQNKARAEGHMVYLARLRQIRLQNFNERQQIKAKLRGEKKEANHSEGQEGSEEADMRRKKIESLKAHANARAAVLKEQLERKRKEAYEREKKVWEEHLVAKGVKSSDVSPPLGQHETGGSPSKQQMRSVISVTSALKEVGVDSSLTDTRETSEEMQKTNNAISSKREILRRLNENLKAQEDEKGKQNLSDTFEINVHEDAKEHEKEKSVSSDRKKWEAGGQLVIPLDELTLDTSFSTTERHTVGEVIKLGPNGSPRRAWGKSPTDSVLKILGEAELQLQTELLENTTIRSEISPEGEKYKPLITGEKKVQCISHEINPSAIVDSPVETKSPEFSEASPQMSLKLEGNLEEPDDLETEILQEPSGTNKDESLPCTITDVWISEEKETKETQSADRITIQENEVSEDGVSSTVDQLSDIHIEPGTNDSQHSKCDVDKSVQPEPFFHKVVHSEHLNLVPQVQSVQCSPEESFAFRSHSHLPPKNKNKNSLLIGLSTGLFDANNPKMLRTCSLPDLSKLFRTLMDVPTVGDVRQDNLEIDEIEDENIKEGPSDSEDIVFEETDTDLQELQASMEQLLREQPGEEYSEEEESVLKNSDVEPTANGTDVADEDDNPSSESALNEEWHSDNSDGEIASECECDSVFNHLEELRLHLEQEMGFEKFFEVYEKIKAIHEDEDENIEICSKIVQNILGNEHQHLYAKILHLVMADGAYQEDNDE

[7] = target: PDGFRb (Homo sapiens, UniProt P09619); conditions: 1 μM; Run 1, Run 2
[8] = target: SRPK2 (Homo sapiens, UniProt P78362); conditions: 1 μM; Run 1, Run 2
[9] = target: CDK1/cyclin A (Homo sapiens, UniProt P06493); experiment: biochemical; conditions: read-out: % enzyme activity, 1 μM; Run 1, Run 2
[10] = target: GSK3a (Homo sapiens, UniProt P49840); experiment: biochemical; conditions: read-out: % enzyme activity, 1 μM; Run 1, Run 2
[11] = target: IGF1R (Homo sapiens, UniProt P08069); experiment: biochemical; conditions: read-out: % enzyme activity, 1 μM; Run 1, Run 2
[12] = target: TESK2 (Homo sapiens, UniProt Q96S53); experiment: biochemical; conditions: read-out: % enzyme activity, 1 μM; Run 1, Run 2
Sequence of TESK2 (Q96S53 whole entry): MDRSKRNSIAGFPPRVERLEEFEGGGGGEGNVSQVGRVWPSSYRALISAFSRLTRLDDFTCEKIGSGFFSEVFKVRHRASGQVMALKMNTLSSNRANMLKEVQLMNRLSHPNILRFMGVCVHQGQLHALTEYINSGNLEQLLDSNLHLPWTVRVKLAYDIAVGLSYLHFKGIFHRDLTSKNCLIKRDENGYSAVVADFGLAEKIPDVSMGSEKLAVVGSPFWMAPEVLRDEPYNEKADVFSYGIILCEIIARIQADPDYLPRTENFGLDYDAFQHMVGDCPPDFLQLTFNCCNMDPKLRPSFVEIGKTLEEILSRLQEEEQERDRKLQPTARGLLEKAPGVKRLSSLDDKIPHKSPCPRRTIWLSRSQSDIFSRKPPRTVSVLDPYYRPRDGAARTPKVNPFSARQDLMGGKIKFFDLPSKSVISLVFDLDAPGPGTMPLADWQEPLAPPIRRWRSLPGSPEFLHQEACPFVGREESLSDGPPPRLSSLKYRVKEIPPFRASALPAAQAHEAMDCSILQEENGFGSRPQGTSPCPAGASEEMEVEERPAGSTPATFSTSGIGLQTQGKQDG

Sequence of GSK3a (P49840 whole entry): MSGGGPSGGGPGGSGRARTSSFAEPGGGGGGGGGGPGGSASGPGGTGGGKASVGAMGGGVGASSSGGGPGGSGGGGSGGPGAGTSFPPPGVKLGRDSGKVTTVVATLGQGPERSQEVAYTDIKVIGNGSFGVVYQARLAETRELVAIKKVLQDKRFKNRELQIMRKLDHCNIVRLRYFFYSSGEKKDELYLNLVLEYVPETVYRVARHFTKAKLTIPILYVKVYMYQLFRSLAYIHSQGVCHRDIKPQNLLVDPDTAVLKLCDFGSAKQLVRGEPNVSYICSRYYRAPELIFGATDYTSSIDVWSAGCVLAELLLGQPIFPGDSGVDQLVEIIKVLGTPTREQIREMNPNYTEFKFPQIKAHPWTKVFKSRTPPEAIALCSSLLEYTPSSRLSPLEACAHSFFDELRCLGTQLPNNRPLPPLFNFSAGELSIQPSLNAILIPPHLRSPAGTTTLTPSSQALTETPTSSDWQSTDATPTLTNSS
Sequence of FGR (P09769 whole entry): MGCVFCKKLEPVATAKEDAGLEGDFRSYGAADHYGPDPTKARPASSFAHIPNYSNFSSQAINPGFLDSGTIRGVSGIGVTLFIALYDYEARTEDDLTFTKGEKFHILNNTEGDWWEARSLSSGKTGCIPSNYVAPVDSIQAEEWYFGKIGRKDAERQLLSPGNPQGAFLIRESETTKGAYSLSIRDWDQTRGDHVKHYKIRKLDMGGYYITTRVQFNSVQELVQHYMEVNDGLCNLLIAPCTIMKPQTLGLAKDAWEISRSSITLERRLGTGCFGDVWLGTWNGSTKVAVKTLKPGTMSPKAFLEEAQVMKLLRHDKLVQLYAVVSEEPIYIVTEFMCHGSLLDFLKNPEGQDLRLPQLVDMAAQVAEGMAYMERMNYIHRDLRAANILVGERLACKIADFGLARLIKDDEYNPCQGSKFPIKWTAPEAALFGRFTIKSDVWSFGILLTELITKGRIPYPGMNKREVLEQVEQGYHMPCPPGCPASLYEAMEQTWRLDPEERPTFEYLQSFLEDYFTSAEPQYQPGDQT
Sequence of SRPK2 (P78362 whole entry): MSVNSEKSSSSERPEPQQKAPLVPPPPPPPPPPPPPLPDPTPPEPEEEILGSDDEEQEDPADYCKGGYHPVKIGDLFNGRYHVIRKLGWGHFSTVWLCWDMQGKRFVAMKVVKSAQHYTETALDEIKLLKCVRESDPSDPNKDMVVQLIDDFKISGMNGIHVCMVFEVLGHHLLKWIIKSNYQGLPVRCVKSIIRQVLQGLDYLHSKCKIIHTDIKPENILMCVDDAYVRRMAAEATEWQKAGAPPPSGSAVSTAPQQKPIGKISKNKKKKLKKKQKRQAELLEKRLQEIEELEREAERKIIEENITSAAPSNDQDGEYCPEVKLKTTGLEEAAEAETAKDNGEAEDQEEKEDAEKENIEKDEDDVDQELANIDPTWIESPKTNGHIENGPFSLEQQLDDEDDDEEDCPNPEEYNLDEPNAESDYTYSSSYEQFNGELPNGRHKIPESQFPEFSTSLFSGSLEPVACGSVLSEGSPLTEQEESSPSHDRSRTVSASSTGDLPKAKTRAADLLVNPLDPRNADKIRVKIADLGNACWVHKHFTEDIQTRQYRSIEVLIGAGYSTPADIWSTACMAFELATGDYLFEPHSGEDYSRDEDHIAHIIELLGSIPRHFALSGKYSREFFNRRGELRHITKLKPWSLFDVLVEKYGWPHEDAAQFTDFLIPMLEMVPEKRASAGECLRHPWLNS
Sequence of CDK7/cyclin H (P50613 whole entry): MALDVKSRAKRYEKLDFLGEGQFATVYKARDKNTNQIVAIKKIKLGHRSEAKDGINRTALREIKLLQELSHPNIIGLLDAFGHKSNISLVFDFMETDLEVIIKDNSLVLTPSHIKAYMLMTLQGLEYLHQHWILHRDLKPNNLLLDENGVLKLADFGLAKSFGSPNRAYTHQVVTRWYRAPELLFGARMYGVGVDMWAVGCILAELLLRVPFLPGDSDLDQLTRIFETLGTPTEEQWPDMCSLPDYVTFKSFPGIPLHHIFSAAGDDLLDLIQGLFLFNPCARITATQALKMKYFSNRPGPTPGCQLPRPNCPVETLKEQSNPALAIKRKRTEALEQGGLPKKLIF
Sequence of CDK7/cyclin H (P51946 whole entry partner): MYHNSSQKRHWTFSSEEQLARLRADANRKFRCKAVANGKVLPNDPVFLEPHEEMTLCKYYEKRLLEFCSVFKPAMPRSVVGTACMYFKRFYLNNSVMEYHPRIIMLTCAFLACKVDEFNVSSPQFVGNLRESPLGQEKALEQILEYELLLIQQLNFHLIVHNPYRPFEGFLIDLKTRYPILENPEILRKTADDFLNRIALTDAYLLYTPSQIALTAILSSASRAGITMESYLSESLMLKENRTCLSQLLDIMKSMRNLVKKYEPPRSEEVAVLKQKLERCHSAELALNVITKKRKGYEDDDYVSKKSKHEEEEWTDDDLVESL
Sequence of CDK7/cyclin H (P51948 whole entry partner): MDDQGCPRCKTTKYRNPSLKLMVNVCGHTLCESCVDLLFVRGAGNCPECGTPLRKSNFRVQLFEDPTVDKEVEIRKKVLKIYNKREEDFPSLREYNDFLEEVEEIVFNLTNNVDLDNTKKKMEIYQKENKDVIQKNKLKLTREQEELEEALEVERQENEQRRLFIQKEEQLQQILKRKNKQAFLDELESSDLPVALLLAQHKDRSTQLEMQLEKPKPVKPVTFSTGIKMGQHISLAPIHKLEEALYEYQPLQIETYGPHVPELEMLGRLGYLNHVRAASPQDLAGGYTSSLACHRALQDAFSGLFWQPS
Sequence of CAMK2g (Q13555 whole entry): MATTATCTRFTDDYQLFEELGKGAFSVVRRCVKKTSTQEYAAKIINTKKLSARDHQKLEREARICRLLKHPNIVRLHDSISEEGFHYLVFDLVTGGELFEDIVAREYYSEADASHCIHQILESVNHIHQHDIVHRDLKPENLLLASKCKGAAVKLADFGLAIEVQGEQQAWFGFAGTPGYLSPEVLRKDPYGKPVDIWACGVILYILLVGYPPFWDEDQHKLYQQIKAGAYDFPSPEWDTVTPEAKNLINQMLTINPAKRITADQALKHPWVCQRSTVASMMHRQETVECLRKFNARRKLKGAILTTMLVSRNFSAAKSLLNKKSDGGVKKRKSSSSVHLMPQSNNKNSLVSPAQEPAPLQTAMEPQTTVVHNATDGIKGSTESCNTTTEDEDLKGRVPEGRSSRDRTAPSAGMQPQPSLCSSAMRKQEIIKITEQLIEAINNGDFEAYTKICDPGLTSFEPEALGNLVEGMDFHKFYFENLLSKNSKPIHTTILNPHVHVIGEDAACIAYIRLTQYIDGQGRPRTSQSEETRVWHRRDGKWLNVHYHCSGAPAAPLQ
Sequence of CDK1/cyclin A (P20248 whole entry): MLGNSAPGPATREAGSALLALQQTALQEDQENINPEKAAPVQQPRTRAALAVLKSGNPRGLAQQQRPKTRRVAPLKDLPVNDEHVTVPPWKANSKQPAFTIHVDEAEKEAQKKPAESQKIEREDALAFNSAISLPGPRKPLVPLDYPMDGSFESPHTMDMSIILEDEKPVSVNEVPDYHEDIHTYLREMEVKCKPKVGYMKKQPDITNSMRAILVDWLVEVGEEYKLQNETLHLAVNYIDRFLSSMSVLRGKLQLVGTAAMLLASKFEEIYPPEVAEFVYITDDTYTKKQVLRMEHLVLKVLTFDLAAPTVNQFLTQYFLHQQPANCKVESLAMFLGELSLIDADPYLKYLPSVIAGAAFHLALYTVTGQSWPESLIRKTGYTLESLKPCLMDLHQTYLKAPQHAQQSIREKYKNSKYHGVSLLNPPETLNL
Sequence of CDK1/cyclin A (P06493 whole entry): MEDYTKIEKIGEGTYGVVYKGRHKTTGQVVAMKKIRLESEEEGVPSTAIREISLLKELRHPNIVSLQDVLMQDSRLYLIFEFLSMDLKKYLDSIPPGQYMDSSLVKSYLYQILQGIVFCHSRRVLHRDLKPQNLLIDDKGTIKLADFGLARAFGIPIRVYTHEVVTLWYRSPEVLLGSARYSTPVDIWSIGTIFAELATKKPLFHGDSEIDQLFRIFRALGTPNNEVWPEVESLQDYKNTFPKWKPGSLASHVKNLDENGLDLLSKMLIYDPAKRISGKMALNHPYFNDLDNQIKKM

| SMILES | % enzyme activity at 1 μM [1] | % enzyme activity [2] [%] | % enzyme activity [3] [%] | % enzyme activity [4] [%] | % enzyme activity [5] [%] | % enzyme activity [6] [%] | % enzyme activity [7] [%] | % enzyme activity [8] [%] | remaining activity at 1 µM [9] [%] | remaining activity at 1 µM [10] [%] | remaining activity at 1 µM [11] [%] | remaining activity at 1 µM [12] [%] |
| --- | --- | --- | --- | --- | --- | --- | --- | --- | --- | --- | --- | --- |
| COc1cc(-c2cncc(-c3ccc(N4C[C@@H](C)N(C)[C@@H](C)C4)cc3)c2C)cc(F)c1C(N)=O [Compound 26c, 2-Fluoro-6-methoxy-4-(4-methyl-5-(4-((3R,5S)-3,4,5-trimethylpiperazin-1-yl)phenyl)pyridin-3-yl)benzamide] | 50.4% and 47.7% | 107.66 | 95.50 | 100.95 | 86.35 | 84.46 | 89.56 | 115.95 | 90.8 | 102 | 96.1 | 92.2 |
| COc1cc(-c2cncc(-c3ccc(N4CCN(C)CC4)cc3)c2C)cc(F)c1C(N)=O [Compound 26a, 2-Fluoro-6-methoxy-4-(4-methyl-5-(4-(4-methylpiperazin-1-yl)phenyl)pyridin-3-yl)benzamide] | 22% and 20.8% | 100.65 | 93.27 | 94.26 | 74.69 | 84.54 | 76.01 | 94.13 | 94.7 | 102 | 99.2 | 93.9 |
